Tumor cell necrosis data for 2 sequences are collected here from US12239720B2, “Compositions for use in lysis of selective cancer cells” (ONCOLYZE, INC., priority 2018, dated 2025).

In the assay the test system is cancer cells. The assay is described as follows: Tumor cell necrosis of cancer cells versus normal cells (general statement). The settings on record: cancer cells vs normal cells; statement in the description, no data shown. The assay is classed as cell-based. How it is done:
PNC-27 or PNC-28 is incubated with 6×10^6 cancer cells, for example, Mia-PaCa-2 cells, for 5 days at concentrations ranging from 0.001-750 μM. At different timepoints following treatment the cells are assessed for signs of necrosis, for example, membrane blebbing and disruption and formation of cell clumps coalescing into aggregates of cellular debris. Percent cell death is determined by measuring trypan blue dye uptake. Cancer cells are also treated with the negative control peptide PNC-29 and, separately, a peptide having only the p53 derived portion of PNC-27 or PNC-28 that cannot traverse the cell membrane due to the lack of the MRP peptide, administered at the same concentration as the test peptide. The effect of these control peptides on cellular growth, morphology and viability is determined.
As an additional control, PNC-27 or PNC-28 is combined with untransformed BMRPA1 acinar cells and with the untransformed breast epithelial cell line, MCF-10-2A at a concentration ranging from 0.001-750 μM to determine if the peptide is lethal to normal cell growth.

As to “ETFSDLWKLLKKWKMRRNQFWVKVQRG [PNC-28, p53 aa17-26-MRP]”, the tumor cell necrosis entry was “induce tumor cell necrosis of cancer cells, but not normal cells”.
With “PPLSQETFSDLWKLLKKWKMRRNQFWVKVQRG [PNC-27]”, the tumor cell necrosis entry was “induce tumor cell necrosis of cancer cells, but not normal cells”.
